Patent US20080131498A1, “PHARMACEUTICAL COMPOSITION, A METHOD OF PREPARING IT AND A METHOD OF TREATMENT BY USE THEREOF” (BUSULIPO AB, priority 1998, published 2008)
Several values for one entry are separate records, joined by “and”; a condition that tells them apart may be missing. Equal values may be shown once. Entries after “also recorded” stand apart in the source; their conditions may differ.

What was measured:
[1] = system: GSH intracellular content of CD34+ cells; experiment: GSH assay in CD34+ cells after NAC or BSO; assay type: cell-based, human; settings: preincubation 16 to 18 hours, NAC 1 mM or BSO 50 μM
Experimental: Ten healthy volunteers were recruited after a medical interview. The study followed the guidelines of the local authorities and was approved by the local ethical committee. […] CD34+ cells were separated on a MACS system by positive selection using CD34+ Separation Kit according to the manufacturer's instructions. Cells were incubated in RPMI-1640 medium supplemented with 10% heat inactivated fetal bovine serum at 37° C. in a humidified 5% CO2 atmosphere. Cells used for pharmacodynamic study were incubated in busulphan of final concentrations of 1, 2.5, 5, 10, 20, 40 or 60 μg/ml for 2, 4 or 8 hours. Cells used for the GSH modulation part were treated with N-acetyl-L-cysteine (NAC) (1 mM) or L-buthionine-[S,R]-sulfoximine (BSO) (50 μM) for 16 to 18 hours, followed by busulphan in final concentrations of 4.5 or 10 μg/ml for 4 hours. […]
(§1) Intracellular concentrations of GSH were determined using the enzymatic assay according to Tietze (Tietze, F. Enzymic method for quantitative determination of nanogram amounts of total and oxidized glutathione: applications to mammalian blood and other tissues. Anal Biochem, 27: 502-522., 1969). Total cellular protein was assessed according to Lowry after dissolving the precipitate in 1M NaOH (Lowry, O. H., Rosebrough, N. J., Farr, A. L., and Randall, R. J. Protein measurement with the folin phenol reagent. J Biol Chem, 193: 265-275., 1951)

CFU-GM = experiment: Busulphan-induced myelosuppression in mice with GSH modulators, CFU-GM assay; assay type: in vivo, Balb/c mice
Experimental: Balb/c mice were purchased from B&K Universal Limited, Sweden. Female mice were 6 to 12 weeks old with a weight ranging from 20 to 24 g. Local animal ethical committee approved animals housing conditions and experimental design. Animals were fed with standard pelleted food and water ad libitum. […] Treatment consisted of N-acetyl-L-cysteine (1.38±0.07 mmol/kg) orally or L-buthionine-[S,R]-sulfoximine (0.93±0.03 mmol/kg) intraperitoneally followed by liposomal busulphan (37±1.4 mg/kg) intraperitoneally. Animals were sacrificed at day 1, 3, 6, 9 or 12 after the last dose of treatment.
Liposomal busulphan was used in the in vivo study and prepared as described in example 1. Liposomal busulphan was prepared freshly before each experiment and stored in refrigerator until use.
(§2) CD34+ cells were treated with NAC, BSO, DMSO or busulphan alone or in combinations, washed and 2000 cells were plated in 1.1 ml of MethoCult™ GF H4434 in 35 mm Petri dishes in triplicates. Colonies were scored on day 14 using an inverted microscope. Murine bone marrow was harvested on day 1, 3, 6, 9 or 12 after the last dose of the treatment. Control group and each treatment group consisted of a minimum of three animals at each time point. Mice were sacrificed under general anaesthesia. Both femurs were removed and bone marrow was flushed out under sterile conditions. Cells were counted in Türk solution and nucleated cells (0.5×10^5) were plated in 1.1 ml of MethoCult™ GF M3534 in 35 mm Petri dishes in triplicates. The plates were placed in incubator (37° C., 5% CO2 and 100% humidity). CFU-GM, equal to or more than 50 cells, were counted on the day 7 using an inverted microscope.

[2] = system: GSH intracellular level of P39 cells; experiment: GSH assay in P39 cells after NAC or BSO; assay type: cell-based, human; settings: BSO 50 μM 16 to 18 hours
Experimental: (§3) The P39 cell line was kindly provided by Prof Y. Yoshida, Center for South East Asian Studies, Kyoto University, Kyoto, Japan. Cells were cultured in RPMI-1640 medium supplemented with 10% heat inactivated fetal bovine serum (FBS), penicillin (25 IU/ml) and streptomycin (25 μg/ml) at 37° C. in a humidified 5% CO2 atmosphere. Exponentially growing cells were used in all experiments. Cells were incubated with N-acetyl-L-cysteine (1 mM) or L-buthionine-[S,R]-sulfoximine (50 μM) for 16 to 18 hours and then with busulphan in final concentrations of 10, 20 or 40 μg/ml for 4 hours. After incubation, cells were washed and re-cultured in busulphan-free medium for 72 hours.
as §1

[3] = system: CFU-GM from normal CD34+ hematopoietic progenitor cells; experiment: Clonogenic assay of CD34+ cells, CFU-GM (Example 11); assay type: cell-based, human; settings: CD34+ cells
Experimental: Ten healthy volunteers were recruited after a medical interview. The study followed the guidelines of the local authorities and was approved by the local ethical committee. […] CD34+ cells were separated on a MACS system by positive selection using CD34+ Separation Kit according to the manufacturer's instructions. Cells were incubated in RPMI-1640 medium supplemented with 10% heat inactivated fetal bovine serum at 37° C. in a humidified 5% CO2 atmosphere. Cells used for pharmacodynamic study were incubated in busulphan of final concentrations of 1, 2.5, 5, 10, 20, 40 or 60 μg/ml for 2, 4 or 8 hours. Cells used for the GSH modulation part were treated with N-acetyl-L-cysteine (NAC) (1 mM) or L-buthionine-[S,R]-sulfoximine (BSO) (50 μM) for 16 to 18 hours, followed by busulphan in final concentrations of 4.5 or 10 μg/ml for 4 hours. After incubation, cells were washed and plated for clonogenic assay.
as §2

myeloid P39 cell line = experiment: Proliferation, clonogenicity and apoptosis in P39 cells; assay type: cell-based, human
Experimental: as §3
Proliferation was assessed using the [^3H]thymidine incorporation assay. Clonogenic capacity was determined in 0.9% methylcellulose and apoptosis with morphology in May-Grünwald-Giemsa staining as described in (Hassan, Z., Hassan, M., and Hellstrom-Lindberg, E. The pharmacodynamic effect of busulfan in the P39 myeloid cell line in vitro. Leukemia, 15: 1240-1247, 2001).

CCCCS(=N)(=O)CC[C@H](N)C(=O)O (stereo partly drawn) [BSO, L-buthionine-[S,R]-sulfoximine]
GSH intracellular content compared to CD34+ cells incubated in medium [1]: 50±9% and 50%
effect alone on CFU-GM formation compared to the control group (CFU-GM): Neither NAC nor BSO influenced
effect of combination on the myelosuppressive effect of busulphan (CFU-GM; NAC 1.38 mmol/kg orally or BSO 0.93 mmol/kg ip before busulphan): did not change the level of myelosuppression
decrease of GSH compared to cells cultured in medium [2]: 80%
effect alone on colony formation of CFU-GM or erythroid colonies [3]: did not influence
effect on busulphan-induced inhibition of colony formation of CFU-GM or erythroid colonies ([3]; preincubation then busulphan 4.5 or 10 μg/ml for 4 hours): Neither did preincubation of CD34+ cells with BSO change; also recorded: no additive effect
decrease of clonogenic capacity of P39 cells (myeloid P39 cell line; alone, immediately at the end of incubation, full recovery after 24 hours): 50%
combined effect with busulphan on P39 cells (myeloid P39 cell line; busulphan 10 μg/ml, immediately after the end of incubation): Additive effect
effect on proliferation of busulphan treated P39 cells ([^3H]thymidine incorporation) (myeloid P39 cell line; pretreatment): did not influence the proliferation
effect on the effect of busulphan on clonogenic capacity of P39 cells (myeloid P39 cell line; pretreatment, busulphan 10, 20 or 40 μg/ml 4 hours): neither NAC nor BSO influenced
effect on levels of apoptosis induced by busulphan in P39 cells (myeloid P39 cell line; pretreatment, data not shown): did not change the levels of apoptosis
